Results as given in ChEMBL document CHEMBL1130503, “Synthesis and antibacterial activity of some thio trinems” (Bioorg Med Chem Lett, 1997).
Values after ≈ are worked out from the molar mass of the structure shown.

Columns and labels:
Escherichia coli [1] = assay: The compound was tested in vitro for the antibacterial activity against Escherichia coli 1850E strain, activity expressed as MIC.; assay type: functional
Clostridium perfringens = assay: The compound was tested in vitro for the antibacterial activity against Clostridium perfringens 615E strain, activity expressed as MIC; assay type: functional
Escherichia coli [2] = assay: The compound was tested in vitro for the antibacterial activity against Escherichia coli 1919 beta-lactamase producing strain, activity expressed as MIC; assay type: functional
Bacteroides fragilis = assay: The compound was tested in vitro for the antibacterial activity against Bacteroides fragilis 2017 strain, activity expressed as MIC; assay type: functional
Staphylococcus aureus [3] = assay: The compound was tested in vitro for the antibacterial activity against Staphylococcus aureus 663E strain, activity expressed as MIC; assay type: functional
Staphylococcus aureus [4] = assay: The compound was tested in vitro for the antibacterial activity against Staphylococcus aureus 853E beta-lactamase producing strain, activity expressed as MIC; assay type: functional
[5] = tested on: renal dehydropeptidase I (DHP-I); assay: Tested for Biological half life in human plasma (stability to human renal dehydropeptidase I,DHP-I).; assay type: ADME, cell-free
[6] = tested on: renal dehydropeptidase I (DHP-I); assay: Biological half life in human plasma (stability to human renal dehydropeptidase I,DHP-I).; assay type: ADME, cell-free
[7] = Clostridium perfringens, read-out: MIC

**Q.** How did the MIC (Escherichia coli [1]; Escherichia coli) turn out when C[C@@H](O)[C@H]1C(=O)N2C(C(=O)[O-])=C3CCCS[C@@H]3[C@H]12.[Na+] was run?
**A.** 0.5 µg/mL

**Q.** And the MIC (Clostridium perfringens; [7])?
**A.** 30 µg/mL

**Q.** And the MIC (Escherichia coli [2]; Escherichia coli)?
**A.** 0.5 µg/mL

**Q.** What about the MIC (Bacteroides fragilis; Bacteroides fragilis) of the same compound?
**A.** 0.25 µg/mL

**Q.** What about the MIC (Staphylococcus aureus [3]; Staphylococcus aureus) of the same compound?
**A.** 1 µg/mL

**Q.** What about the MIC (Staphylococcus aureus [4]; Staphylococcus aureus) of the same compound?
**A.** 1 µg/mL

**Q.** With C=CCOC(=O)C1=C2SCCC[C@H]2[C@@H]2[C@@H]([C@@H](C)O)C(=O)N12 as the compound, how does the MIC (Escherichia coli [1]; Escherichia coli) read?
**A.** 1 µg/mL (≈ 3.23 µM)

**Q.** What about the MIC (Clostridium perfringens; [7]) of the same compound?
**A.** 500 µg/mL (≈ 1620 µM)

**Q.** And the MIC (Escherichia coli [2]; Escherichia coli)?
**A.** 2 µg/mL (≈ 6.46 µM)

**Q.** And the half-life [5]?
**A.** 10 min

**Q.** And the MIC (Staphylococcus aureus [3]; Staphylococcus aureus)?
**A.** 1 µg/mL (≈ 3.23 µM)

**Q.** And the MIC (Staphylococcus aureus [4]; Staphylococcus aureus)?
**A.** 1 µg/mL (≈ 3.23 µM)

**Q.** For C[C@@H](O)[C@H]1C(=O)N2C(C(=O)[O-])=C3CCSCC3[C@H]12.[K+] (stereo in doubt; 15b), which MIC (Escherichia coli [1]) is on record?
**A.** 4 µg/mL

**Q.** What about the MIC (Clostridium perfringens) of the same compound?
**A.** 250 µg/mL

**Q.** What about the MIC (Escherichia coli [2]) of the same compound?
**A.** 1 µg/mL

**Q.** And the MIC (Bacteroides fragilis)?
**A.** 0.5 µg/mL

**Q.** What about the half-life [5] of the same compound?
**A.** < 7 min

**Q.** And the MIC (Staphylococcus aureus [3])?
**A.** 1 µg/mL

**Q.** What about the MIC (Staphylococcus aureus [4]) of the same compound?
**A.** 0.5 µg/mL

**Q.** What does the source list for C[C@@H](O)[C@H]1C(=O)N2C(C(=O)[O-])=C3CCSCC3[C@H]12.[K+] (stereo in doubt; 15a)?
**A.** MIC (Escherichia coli [1]; Escherichia coli): 4 µg/mL; MIC (Clostridium perfringens): 1000 µg/mL; half-life [6]: 12 min; MIC (Escherichia coli [2]; Escherichia coli): 2 µg/mL; MIC (Bacteroides fragilis): 0.12 µg/mL; MIC (Staphylococcus aureus [3]; Staphylococcus aureus): 1 µg/mL; MIC (Staphylococcus aureus [4]; Staphylococcus aureus): 1 µg/mL

**Q.** With C[C@@H](O)[C@H]1C(=O)N2C(C(=O)O)=C(SCCNC=N)C[C@H]12 [IMIPENEM ANHYDROUS] as the compound, how does the MIC (Escherichia coli [1]; Escherichia coli) read?
**A.** 0.5 µg/mL (≈ 1.67 µM)

**Q.** What about the MIC (Clostridium perfringens; [7]) of the same compound?
**A.** 30 µg/mL (≈ 100 µM)

**Q.** What about the MIC (Escherichia coli [2]; Escherichia coli) of the same compound?
**A.** 0.5 µg/mL (≈ 1.67 µM)

**Q.** What about the MIC (Bacteroides fragilis; Bacteroides fragilis) of the same compound?
**A.** 0.12 µg/mL (≈ 0.401 µM)

**Q.** What about the MIC (Staphylococcus aureus [3]; Staphylococcus aureus) of the same compound?
**A.** 0.06 µg/mL (≈ 0.2 µM)

**Q.** And the MIC (Staphylococcus aureus [4]; Staphylococcus aureus)?
**A.** 0.12 µg/mL (≈ 0.401 µM)

**Q.** Which MIC (Escherichia coli [1]; Escherichia coli) does the source give for CS[C@H]1CCS[C@H]2C1=C(C(=O)[O-])N1C(=O)[C@H]([C@@H](C)O)[C@@H]21.[Na+] here?
**A.** 2 µg/mL

**Q.** What about the MIC (Clostridium perfringens; [7]) of the same compound?
**A.** ≤ 10 µg/mL

**Q.** What about the MIC (Escherichia coli [2]; Escherichia coli) of the same compound?
**A.** 1 µg/mL

**Q.** And the MIC (Bacteroides fragilis; Bacteroides fragilis)?
**A.** 0.2 µg/mL

**Q.** And the half-life [5]?
**A.** 386 min

**Q.** And the MIC (Staphylococcus aureus [3]; Staphylococcus aureus)?
**A.** 0.2 µg/mL

**Q.** What about the MIC (Staphylococcus aureus [4]; Staphylococcus aureus) of the same compound?
**A.** 0.5 µg/mL
